Assay results: patent US11883430B2, “CD38-NAD+ regulated metabolic axis in anti-tumor immunotherapy” (MUSC FOUNDATION FOR RESEARCH DEVELOPMENT, priority 2016, dated 2024)

Key:
Foxo1 = assay: Confocal imaging of Foxo1 localization in Th17 and Th1/17 cells; assay type: cell-based, mouse; conditions: Th17 and Th1/17 cells programmed with SC-79 0.5 μg/ml (FIG. 13H)
NAD+ = assay: Intracellular NAD+ level; assay type: cell-based, mouse; conditions: Th1/17 differentiated with 2DG 1 mM, DON 3 μM or FK866 10 nM (FIGS. 11K, 11L)
Description: NAD^+, Sirt1 activity and Foxo1 activity assay: Intracellular NAD^+ level in T cells were measured spectrophotometrically following the manufacturer's protocol (Cayman chemical, Ann Arbor, MI). Using equal amounts of nuclear protein extracted by NE-PER Nuclear and Cytoplasmic Extraction Reagents (Thermo Fisher Scientific, Waltham, MA), Sirt1 activity (Universal Sirt1 Activity Assay Kit, Abcam, Cambridge, MA) and Foxo1 activity (FKHR transcription Factor Assay Kit, Active Motif, Carlsbad, CA) were determined as per manufacturer's protocol.

B16-F10 melanoma = assay: Adoptive T cell transfer, s.c. B16-F10 melanoma in C57BL/6 mice, tumor growth; assay type: in vivo, mouse; conditions: TRP-1 Th1/17 differentiated with DON 3 μM vs DMSO, 0.5×10^6 cells (FIG. 3P)
Description: Adoptive T cell protocol: B16-F10 or B16-F10-A2^+ mouse melanoma tumor cells (2.5×10^6) were injected subcutaneously (s.c.) into left flank of 8-10 weeks old C57BL/6 or HLA-A2^+ (or HLA-A2^+-RAG^−/−) mice respectively. After 9 days of tumor establishment, recipient mice were injected (i.p) with cyclophosphamide (4 mg/mice) before adoptively transferring (i.v) either h3T (CD4^+Vβ12^+) or TRP-1 (CD4^+Vβ14^+) Th1, Th17, Th1/17 cells on day 10. Similarly, Pmel (CD8^+Vβ13^+) and TCR-I (CD8^+Sv40 antigen specific) Tc1, Tc17 and Tc1/17 cells were adoptively transferred (i.v) into either 9 days established B16-F10 tumor bearing mice or TRAMP (spontaneously develop prostate tumor) respectively. For in vivo neutralization of IFNγ and IL17, neutralizing antibody to IFNγ and IL17 or matched isotype antibody was injected (100 μg/mouse; i.p.) in tumor bearing mice following adoptive transfer of T cells. In some experiments, tumor bearing mice received anti-CD38 antibody (50 μg/mouse; i.p.) after adoptive TRP-1 Th0 cells transfer. Recipient mice were given IL2 (50,000 U/mouse; i.p) for 3 consecutive days after ACT.

Th1/17 cells [1] = assay: Intracellular cytokine (IFNγ, IL17) flow cytometry after PMA and ionomycin; assay type: cell-based, mouse
Description: T cell differentiation: Naïve CD4^+ T cells were purified from the total splenocytes of 6-9 weeks old WT (C57BL/6) and KO (Foxo1^fl/flLck^cre, Sirt1^fl/flCD4^cre, CD38KO) mice using CD4^+ T cell isolation kit (Miltenyi Biotec) according to manufacturer's protocol. Total splenocytes from 6-9 weeks old TCR transgenic mouse TRP-1 (bears class-II restricted CD4^+ T cells) or Pmel (bears class-I restricted CD8^+ T cells) or TCR-I (bears class-I restricted CD8^+ T cells) were also used. Within experiments mice were age and sex matched. Purified naïve CD4^+ T cells or total splenocytes were differentiated to Th1 or Tc1 (10 ng/ml IL12, 50 U/ml IL2 and 10 μg/ml anti-IL4), Th17 or Tc17 (3 ng/ml TGFβ, 25 ng/ml IL6, 10 μg/ml anti-IL4 and 10 μg/ml anti-IFNγ), Th1/17 or Tc1/17 (20 ng/ml IL1β, 25 ng/ml IL6, 10 ng/ml IL12, 20 ng/ml IL23, 400 pg/ml TGFβ, 10 μg/ml anti-IL4, 5 μg/ml anti-IFNγ), iTreg (5 ng/ml TGFβ, 100 IU/ml IL2, 10 μg/ml anti-IL4 and 10 μg/ml anti-IFNγ or Th0 (50 IU/ml IL2) in presence of plate bound anti-CD3 (5 μg/ml) and anti-CD28 (5 μg/ml). For TRP-1, gp100 or Sv40 specific generation of different Th or Tc subsets, total splenocytes from either TRP-1, Pmel or TCR-I TCR transgenic mice were stimulated with 1 μg/ml respective peptides in presence of above-mentioned polarizing conditions. T cells were differentiated for three days in IMDM media supplemented with 10% FCS, 4 mM L-glutamine, 100 U/ml penicillin, 100 μg/ml streptomycin, 55 μM beta-mercaptoethanol under 7% CO2, atmospheric oxygen at 37° C. in a humidified incubator. For evaluation of intracellular cytokines by flow cytometry, T cells were re-stimulated with PMA (500 ng/ml) and Ionomycin (500 ng/ml) for 4 hr in presence of Glogi inhibitors. […]
Flow cytometry: Staining for cell surface markers was performed by incubating cells with antibody at 1:200 dilutions in FACS buffer (0.1% BSA in PBS) for 30 min at 4° C. […] Samples were acquired on LSRFortessa and analysed with FlowJo software (Tree Star, OR).

Th1/17 cells [2] = assay: Glutamine uptake assay (radiolabelled glutamine); assay type: cell-based, mouse; conditions: DON pre-treatment, different conc. (FIG. 3O)
Description: Glutamine uptake assay: Ex vivo programmed Th cell subsets (1×10^6 cells) were starved in glutamine free RPMI-1640 media (Thermo Fisher Scientific, Cat #21870-076) for 15 min before incubated with L-2,3,4-[^3H] glutamine (0.5 mCi, PerkinElmer) for 10 min at room temperature. Cells were lysed in 500 μl of lysis buffer (Sigma-Aldrich, St. Louis, MO) and radioactivity was measured by liquid scintillation.

Th1/17 cells [3] = assay: Viable cells by FACS live/dead dye staining; assay type: cell-based, mouse; conditions: cultured in presence of DON 3 μM; compared to Th1 or Th17 cell (FIG. 11H)
Description: FIGS. 11A-11L: Metabolic commitment of Th1, Th17 and Th1/17 cells (see FIGS. 3-4). (A-C) In vitro differentiated murine Th1, Th17 and Th1/17 cells were used for determining: (A) intracellular expression of various glycolytic enzymes, (B) cell surface expression of different amino acid transporters, and (C) intracellular expression of glutaminolytic enzymes by flow cytometry. Data are representative of three independent experiments with similar results. (D) Western blot analysis determined the protein level of various glutamine transporters and glutaminolytic enzymes in in vitro differentiated Th1, Th17 and Th1/17 cells. β-actin was used as a loading control. Data are representative of two independent experiments with similar results. (E-F) Purified CD4^+ T cells were differentiated to Th1, Th17 and Th1/17 cells either in presence or absence of 2DG (1 mM) or DON (3 μM) and characterized for: (E) intracellular cytokine secretion after restimulating them with PMA and ionomycin for 4 hr, (F) determining the frequency of cells that were IFNγ^+, IL17^+ or IFNγ^+IL17^+ in each treatment groups and presented using scatter plot. Statistical comparison between treated and untreated groups are indicated. […] (I) Purified CD4^+ T cells were differentiated into Th1, Th17 and Th1/17 cells and intracellular metabolites were measured using mass spectrometry. […]

Th1/17 cells [4] = assay: Global acetylation of nuclear protein, western blot; assay type: cell-based, mouse; conditions: Nampt inhibitor FK866 treatment (FIG. 6A, FIG. 13A)
Description: Immunoblotting and Immunoprecipitation of Foxo1: For evaluation of global protein acetylation, cells were lysed using NE-PER Nuclear and Cytoplasmic Extraction Reagents (Thermo Fisher Scientific, Waltham, MA) and nuclear fraction was isolated according to the manufacturer's protocol. Equal amounts of nuclear protein (20 μg) were separated by 4%-12% SDS-PAGE and then transferred to nitrocellulose membranes. The membranes were probed with anti-Acetyl-Lysine antibody (Cell Signaling Technologies, Danvers, MA) followed by incubation with secondary antibody (HRP-conjugated goat anti-rabbit IgG at 1:3000 dilutions) for overnight at 4° C. Pre-stained molecular weight and magic markers were run in parallel to identify the molecular weight of proteins. For chemiluminescent detection, the membranes were treated with enhanced chemiluminescent reagent, and the signal was monitored using a Biorad Versadoc imaging system (Biorad, Hercules, CA). Same membrane was stripped with stripping buffer (Bioland Scientific, Paramount, CA) according to manufacturer's protocol and re-probed with antibody specific to histone H3 (Cell Signaling Technologies, Danvers, MA) as reference control.

Th1/17 cells [5] = assay: qPCR gene expression in Th1/17 cells; assay type: cell-based, mouse; conditions: Th1/17 differentiated with FK866 10 nM or Ex527 (FIGS. 4D, 5D)
Description: Real-time quantitative-PCR: Total RNA was extracted from pellets of the indicated T cell subsets (2×10^6 cells) using Trizol reagent (Life technologies, Grand Island, NY). cDNA was generated from 1 μg total RNA using iScript cDNA Synthesis Kit (BioRad, Hercules, CA). SYBR Green incorporation quantitative real-time PCR was performed using a SYBR Green mix (Biorad, Hercules, CA) in the CFX96 Detection System (BioRad, Hercules, CA). Expression of different genes was quantified relative to Actb.

Th1 cells = assay: Intracellular cytokine (IFNγ, IL17) flow cytometry after PMA and ionomycin; assay type: cell-based, mouse; conditions: Th1 subsets (FIGS. 12A and 12B)
Description: FIGS. 12A-12D: Loss of Sirt1 expression and NAD+ levels on Th1/17 cell phenotype and function (see FIG. 5). (A) Purified CD4^+ T cells from C57BL/6 were used to differentiate to Th1/17 cells either alone or in the presence of Ex527, a pharmacological inhibitor of Sirt1. Cells were then restimulated with PMA and ionomycin for 4 hr in presence of golgi block to stain for intracellular accumulation of cytokines IFNγ and IL17. (B) Th1 cells were cultured either in presence or absence of NAD+ inhibitor FK866 (10 nM) and intracellular staining was performed for IFNγ and IL17. Data was acquired using FACS and analysis was carried out using FlowJo software. (C-D) Purified splenic CD4^+ T cells from either C57BL/6 WT or Sirt1fl/flCD4Cre (Sirt1KO) mouse were used to ex vivo program for Th1/17 cells. RNA was prepared and quantitative PCR analysis was performed for the expression of various glycolysis (C) and glutaminolysis (D) associated genes in either WT or Sirt1KO Th1/17 cells. Data in section A-D are representative of three independent experiments.
T cell differentiation: Naïve CD4^+ T cells were purified from the total splenocytes of 6-9 weeks old WT (C57BL/6) and KO (Foxo1^fl/flLck^cre, Sirt1^fl/flCD4^cre, CD38KO) mice using CD4^+ T cell isolation kit (Miltenyi Biotec) according to manufacturer's protocol. […]

[6] = system: B16-F10-HLA-A2+ murine melanoma; assay: Adoptive T cell transfer, s.c. B16-F10-HLA-A2+ melanoma, tumor growth; assay type: in vivo, mouse; conditions: Th1/17 differentiated ex vivo with FK866 or Ex527 vs untreated/vehicle (FIGS. 4E, 5F)

CCOC(=O)C1=C(N)Oc2ccc(Cl)cc2C1C(C#N)C(=O)OCC (stereo not drawn) [SC-79]
nuclear Foxo1 levels (Foxo1): reduced nuclear Foxo1 levels

[N-]=[N+]=CC(=O)CC[C@H](N)C(=O)O [DON, 6-Diazo-5-oxo-L-norleucine]
NAD+ levels in Th1/17 cells (NAD+): significantly reduced NAD^+ levels | anti-tumor response of DON pre-treated Th1/17 cells upon ACT (B16-F10 melanoma): significant attenuation of the anti-tumor response upon ACT | IFNγ+IL-17+ secreting fraction (Th1/17 cells [1]; DON 3 μM in differentiation media from day 0 (FIGS. 11E, 11F)): reduction in IFNγ^+IL-17^+ secreting fraction | uptake of radio labelled glutamine (Th1/17 cells [2]): reduced the uptake of radio labelled glutamine in a dose dependent manner | viability of Th1/17 cells (Th1/17 cells [3]): reduced by two-folds

O=C(/C=C/c1cccnc1)NCCCCC1CCN(C(=O)c2ccccc2)CC1 [FK866]
NAD+ levels in Th1/17 cells (NAD+): depletion of NAD^+ | reduced global acetylation of Th1/17 cells (Th1/17 cells [4]): reversed to a certain extent | expression of stemness-associated genes (Th1/17 cells [5]): reduced expression of stemness-associated molecules such as Tcf7, Bcl6, and β-catenin | IFNγ secreting fraction (Th1 cells): No significant difference | tumor control by inhibitor-treated Th1/17 cells upon adoptive transfer [6]: failed to exhibit potent tumor control upon adoptive transfer | frequency of IL17+IFNγ+ population (Th1/17 cells [1]; FK866 10 nM in differentiation media from day 0 (FIG. 4C)): two-fold decrease in the frequency of IL17^+IFNγ^+ population
